For 21 molecules, EC50 and IC50 results are on record in patent publication EP4745124A1, “NAPHTHALIMIDE-BASED CORONAVIRUS PAPAIN-LIKE PROTEASE INHIBITOR” (Guangzhou National Laboratory, priority 2023, dated 2025).

Usually EC50 stands for the concentration giving half of the maximal effect. By IC50 is commonly meant the midpoint of a concentration-inhibition curve.

One experiment has as its system SARS-CoV-2 WT. As to the kind of experiment: Anti-viral activity evaluation in SARS-CoV-2 infected Vero-E6 cell model (qRT-PCR viral copy numbers). Format: cell-based. The conditions noted are these: Severe acute respiratory syndrome coronavirus 2, Vero C1008, 48 h, read-out: SARS-Cov-2 WT EC50 (µM). For orientation: Quantitative PCR measures a nucleic acid by following its amplification.

Another experiment concerns the target T1, SARS-CoV-2 PL^Pro (Severe acute respiratory syndrome coronavirus 2, UniProt P0DTD1).
T1 construct: SARS-CoV-2 PL^Pro catalytic domain (746-1060); made in house
As to the kind of experiment: biochemical.

The next experiment deals with SARS-Cov-2 Omicron BA.5. As to the kind of experiment: microbe, parasite or virus in culture. Format: cell-based. The conditions noted are these: Severe acute respiratory syndrome coronavirus 2, Vero C1008, 48 h, read-out: SARS-Cov-2 Omicron BA.5 EC50 (µM).
The subject of the next experiment is SARS-Cov-2 XBB.1. As to the kind of experiment: microbe, parasite or virus in culture. As to conditions: Severe acute respiratory syndrome coronavirus 2, Vero C1008, 48 h, read-out: SARS-Cov-2 XBB.1 EC50 (µM). Format: cell-based.
Where [1] appears, read: SARS-CoV-2 PLPro catalytic domain (746-1060), 10 minutes pre-incubation, read-out: PLpro IC50.

Read-outs that look alike come from different tables or passages of the source.

As to `Cc1ccc(N2CC3CC(C2)N3)cc1C(=O)NC1(c2ccc3c4c(cccc24)C(=O)N3C)CC1` [Compound P5, 5-(3,6-diazabicyclo[3.1.1]heptan-3-yl)-2-methyl-N-(1-(1-methyl-2-oxo-1,2-dihydrobenzo[cd]indol-6-yl)cyclopropyl)be nzamide], the 50% effective concentration (EC50) was less than 0.04 µM in the experiment with SARS-CoV-2 WT, 0.1 to 1 µM in the experiment with SARS-Cov-2 Omicron BA.5 and 0.04 to 0.1 µM with SARS-Cov-2 XBB.1. In addition, on SARS-CoV-2 PL^Pro, the IC50 is less than 40 nM.
For `Cc1ccc(C2=CCN(C)CC2)cc1C(=O)NC1(c2ccc3c4c(cccc24)C(=O)N3C)CC1` [Compound P7, 2-Methyl-5-(1-methyl-1,2,3,6-tetrahydropiperidin-4-yl)-N-(1-(1-methyl-2-oxo-1,2-dihydrobenzo[cd]indol-6-yl)cyclopropyl)benzamide] the same measures were 0.1 to 1 µM, 0.1 to 1 µM, 0.1 to 1 µM and less than 40 nM.
The like results for `Cc1ccc(N2CC3CC(C2)N3C)cc1C(=O)NC1(c2ccc3c4c(cccc24)C(=O)N3C)CC1` [Compound P11, 2-methyl-N-(1-(1-methyl-2-oxo-1,2-dihydrobenzo[cd]indol-6-yl)cyclopropyl)-5-(6-methyl-3,6-diazabicyclo[3.1.1]heptan-3-yl)benzamide] were, in that order, 0.1 to 1 µM, 0.1 to 1 µM, 0.04 to 0.1 µM and less than 40 nM.
As for `CC(C)N1C(=O)c2cccc3c(C4(NC(=O)c5cccc(N6CC7CC(C6)N7)c5)CC4)ccc1c23` [Compound P16, 5-(3,6-diazabicyclo[3.1.1]heptan-3-yl)-N-(1-(1-isopropyl-2-oxo-1,2-dihydrobenzo[cd]indol-6-yl)cyclopropyl)benzamide], the EC50 in the experiment with SARS-CoV-2 WT lay in the range of 0.1 to 1 µM; in the experiment on SARS-Cov-2 Omicron BA.5, 0.1 to 1 µM; with SARS-Cov-2 XBB.1, 0.04 to 0.1 µM. Further, the IC50 on SARS-CoV-2 PL^Pro (read-out: PLpro IC50) is less than 40 nM.
Regarding `Cc1ccc(N2CC(N3CCC(C)(O)CC3)C2)cc1C(=O)NC1(c2ccc3c4c(cccc24)C(=O)N3C)CC1` [Compound P17, 5-(3-(4-Hydroxy-4-methylpiperidin-1-yl)azetidin-1-yl)-2-methyl-N-(1-(1-methyl-2-oxo-1,2-dihydrobenzo[cd]indol-6-yl)cyclopropyl)benzamide], the EC50 in the experiment on SARS-CoV-2 WT was less than 0.04 µM; in the experiment on SARS-Cov-2 Omicron BA.5, 0.1 to 1 µM; in the experiment with SARS-Cov-2 XBB.1 it was 0.04 to 0.1 µM. The IC50 at SARS-CoV-2 PL^Pro (setting [1]) was less than 40 nM.
Regarding `Cc1ccc(N2CC3CCCN(C)C3C2)cc1C(=O)NC1(c2ccc3c4c(cccc24)C(=O)N3C)CC1` (stereo not drawn) [Compound P39, 2-Methyl-N-(1-(1-methyl-2-oxo-1,2-dihydrobenzo[cd]indol-6-yl)cyclopropyl)-5-(1-methyloctahydro-6H-pyrrolo[3,4-b]pyridin-6-yl)benzamide], at SARS-CoV-2 PL^Pro (setting [1]), the half-maximal inhibitory concentration (IC50) was less than 40 nM.
Same read-out and setting: under `Cc1ccc(N2C[C@H]3C[C@@H]2CN3C)cc1C(=O)NC1(c2ccc3c4c(cccc24)C(=O)N3C)CC1` [Compound P40, 2-Methyl-N-(1-(1-methyl-2-oxo-1,2-dihydrobenzo[cd]indol-6-yl)cyclopropyl)-5-((1R,4R)-5-methyl-2,5-diazabicyclo[2. 2.1]heptan-2-yl)benzamide] stands less than 40 nM.
The same measure, in the same setting: under `Cc1ccc(N2CCN(CC(C)O)CC2)cc1C(=O)NC1(c2ccc3c4c(cccc24)C(=O)N3C)CC1` (stereo not drawn) [Compound P41, 5-(4-(2-hydroxypropyl)piperazin-1-yl)-2-methyl-N-(1-(1-methyl-2-oxo-1,2-dihydrobenzo[cd]indol-6-yl)cyclopropyl)be nzamide] stands less than 40 nM.
Regarding `Cc1ccc(N2CC(N3CCC3)C2)cc1C(=O)NC1(c2ccc3c4c(cccc24)C(=O)N3C)CC1` [Compound P42, 5-([1,3'-diazetidin]-1'-yl)-2-methyl-N-(1-(1-methyl-2-oxo-1,2-dihydrobenzo[cd]indol-6-yl)cyclopropyl)benzamide], the IC50 at SARS-CoV-2 PL^Pro (read-out: PLpro IC50) is less than 40 nM.
Take `Cc1ccc(N2CC(N3CCC(O)C3)C2)cc1C(=O)NC1(c2ccc3c4c(cccc24)C(=O)N3C)CC1` (stereo not drawn) [Compound P43, 5-(3-(3-hydroxypyrrolidin-1-yl)azetidin-1-yl)-2-methyl-N-(1-(1-methyl-2-oxo-1,2-dihydrobenzo[cd]indol-6-yl)cyclopropyl)benzamide]: the IC50 at SARS-CoV-2 PL^Pro (setting [1]) is less than 40 nM.
Consider `Cc1ccc(N2CC(N3CCN(C)C(=O)C3)C2)cc1C(=O)NC1(c2ccc3c4c(cccc24)C(=O)N3C)CC1` [Compound P44, 2-Methyl-N-(1-(1-methyl-2-oxo-1,2-dihydrobenzo[cd]indol-6-yl)cyclopropyl)-5-(3-(4-methyl-3-oxopiperazin-1-yl)azetidin-1-yl)benzamide], for which, at SARS-CoV-2 PL^Pro (setting [1]), the concentration for half-maximal inhibition (IC50) fell in the range of 100 to 1000 nM.
Still for that read-out and setting: the same measure for `Cc1ccc(N2CC(N3CCCC3)C2)cc1C(=O)NC1(c2ccc3c4c(cccc24)C(=O)N3C)CC1` [Compound P45, 2-methyl-N-(1-(1-methyl-2-oxo-1,2-dihydrobenzo[cd]indol-6-yl)cyclopropyl)-5-(3-(pyrrolidin-1-yl)azetidin-1-yl)benzamide]: less than 40 nM.
`Cc1ccc(N2CC(N3CCOCC3)C2)cc1C(=O)NC1(c2ccc3c4c(cccc24)C(=O)N3C)CC1` [Compound P46, 2-methyl-N-(1-(1-methyl-2-oxo-1,2-dihydrobenzo[cd]indol-6-yl)cyclopropyl)-5-(3-morpholinazetidin-1-yl)benzamide]: at SARS-CoV-2 PL^Pro (read-out: PLpro IC50), the IC50 lay in the range of 100 to 1000 nM.
Still for that read-out and setting: the same measure for `Cc1ccc(N2CC3CCN(C)C3C2)cc1C(=O)NC1(c2ccc3c4c(cccc24)C(=O)N3C)CC1` (stereo not drawn) [Compound P47]: less than 40 nM.
In the case of `Cc1ccc(N2CCC(N3CCCC3)C(F)(F)C2)cc1C(=O)NC1(c2ccc3c4c(cccc24)C(=O)N3C)CC1` (stereo not drawn) [Compound P48, 5-(3,3-difluoro-4-(pyrrolidin-1-yl)piperidin-1-yl)-2-methyl-N-(1-(1-methyl-2-oxo-1,2-dihydrobenzo[cd]indol-6-yl)cyclopropyl)benzamide], the 50% inhibitory concentration (IC50) at SARS-CoV-2 PL^Pro (setting [1]) lay within 100 to 1000 nM.
The same measure, in the same setting: the same measure for `Cc1ccc(N2CCN(CC(C)(C)O)CC2)cc1C(=O)NC1(c2ccc3c4c(cccc24)C(=O)N3C)CC1` [Compound P49, 5-(4-(2-Hydroxy-2-methylpropyl)piperazin-1-yl)-2-methyl-N-(1-(1-methyl-2-oxo-1,2-dihydrobenzo[cd]indol-6-yl)cyclopropyl)benzamide]: less than 40 nM.
On the same count and under the same terms, under `Cc1ccc(N2CCC(N3CCCCC3)C2)cc1C(=O)NC1(c2ccc3c4c(cccc24)C(=O)N3C)CC1` (stereo not drawn) [Compound P50, 2-Methyl-N-(1-(1-methyl-2-oxo-1,2-dihydrobenzo[cd]indol-6-yl)cyclopropyl)-5-(3-(piperidin-1-yl)pyrrolidin-1-yl)benz amide] stands less than 40 nM.
With `Cc1ccc(N2CCN(CCCS(C)(=O)=O)CC2)cc1C(=O)NC1(c2ccc3c4c(cccc24)C(=O)N3C)CC1` [Compound P51], the IC50 on SARS-CoV-2 PL^Pro (read-out: PLpro IC50) lay in the range of 40 to 100 nM.
Take `Cc1ccc(N2CCN(CCN(C)C)CC2)cc1C(=O)NC1(c2ccc3c4c(cccc24)C(=O)N3C)CC1` [Compound P52, 5-(4-(2-(Dimethylamino)ethyl)piperazin-1-yl)-2-methyl-N-(1-(1-methyl-2-oxo-1,2-dihydrobenzo[cd]indol-6-yl)cyclopropyl)benzamide]: the 50% inhibitory concentration (IC50) at SARS-CoV-2 PL^Pro (setting [1]) lay in the range of 100 to 1000 nM.
In the case of `Cc1ccc(N2CCN(CCO)CC2)cc1C(=O)NC1(c2ccc3c4c(cccc24)C(=O)N3C)CC1` [Compound P53, 5-(4-(2-Hydroxyethyl)piperazin-1-yl)-2-methyl-N-(1-(1-methyl-2-oxo-1,2-dihydrobenzo[cd]indol-6-yl)cyclopropyl)ben zamide], the IC50 on SARS-CoV-2 PL^Pro (setting [1]) lay in the range of 40 to 100 nM.
For `Cc1ccc(N2CC(N3CC(F)C3)C2)cc1C(=O)NC1(c2ccc3c4c(cccc24)C(=O)N3C)CC1` [Compound P54, 5-(3-Fluoro-[1,3'-diazetidinyl]-1'-yl)-2-methyl-N-(1-(1-methyl-2-oxo-1,2-dihydrobenzo[cd]indol-6-yl)cyclopropyl)ben zamide], at SARS-CoV-2 PL^Pro (read-out: PLpro IC50), the IC50 fell in the range of 40 to 100 nM.
